# Laboratory results as given in patent US9663510B2, “Substituted triazolopyridines and their use as TTK inhibitors” (Bayer Intellectual Property GmbH, priority 2011, dated 2017).
# Where two headings read alike, the source gives them in different places.
# Experiments:
# [1] = system: HeLa human cervical tumor cells; test: HeLa cell proliferation assay (crystal violet); format: cell-based; details: 96 h, 4 days incubation, read-out: Inhibition of cell proliferation, cell Line: HeLa IC50
# human kinase Mps-1 = human kinase Mps-1 (Homo sapiens (Human), UniProt P33981); test: Mps-1 kinase assay (TR-FRET); format: biochemical
# [2] = Metabolic stability in vitro, rat liver microsomes (calculation of Fmax); format: in vitro ADME; details: maximal oral bioavailability calculated from microsomal half-life, 1 μM
# Experimental: (§1) The metabolic stability of test compounds in vitro was determined by incubating them at 1 μM with a suspension liver microsomes in 100 mM phosphate buffer, pH7.4 (NaH2PO4×H2O+Na2HPO4×2H2O) at a protein concentration of 0.5 mg/mL and at 37° C. The reaction was activated by adding a co-factor mix containing 1.2 mg NADP, 3 IU glucose-6-phosphate dehydrogenase, 14.6 mg glucose-6-phosphate and 4.9 mg MgCl2 in phosphate buffer, pH 7.4. Organic solvent in the incubations was limited to <0.2% dimethylsulfoxide (DMSO) and <1% methanol. During incubation, the microsomal suspensions were continuously shaken and aliquots were taken at 2, 8, 16, 30, 45 and 60 min, to which equal volumes of cold methanol were immediately added. Samples were frozen at −20° C. over night, subsequently centrifuged for 15 minutes at 3000 rpm and the supernatant was analyzed with an Agilent 1200 HPLC-system with LCMS/MS detection.
# (§2) The half-life of a test compound was determined from the concentration-time plot. From the half-life the intrinsic clearances were calculated. Together with the additional parameters liver blood flow, specific liver weight and microsomal protein content the hepatic in vivo blood clearance (CL) and the maximal oral bioavailability (Fmax) were calculated for the different species. The following parameter values were used: Liver blood flow—1.3 L/h/kg (human), 2.1 L/h/kg (dog), 4.2 L/h/kg (rat); specific liver weight—21 g/kg (human), 39 g/kg (dog), 32 g/kg (rat); microsomal protein content—40 mg/g.
# (§3) With the described assay only phase-I metabolism of microsomes is reflected, e.g. typically oxidoreductive reactions by cytochrome P450 enzymes and flavin mono-oxygenases (FMO) and hydrolytic reactions by esterases (esters and amides).
# [3] = Metabolic stability in vitro, human liver microsomes (calculation of Fmax); format: in vitro ADME; details: maximal oral bioavailability calculated from microsomal half-life, 1 μM
# Experimental: as §1, §2, §3
# [4] = Metabolic stability in vitro, dog liver microsomes (calculation of Fmax); format: in vitro ADME; details: maximal oral bioavailability calculated from microsomal half-life, 1 μM
# Experimental: as §1, §2, §3
# [5] = read-out: Mps-1 Inhibition, IC50 (Assay with 10 μM ATP), 10 μM ATP
# Chain of human kinase Mps-1 (P33981 whole entry): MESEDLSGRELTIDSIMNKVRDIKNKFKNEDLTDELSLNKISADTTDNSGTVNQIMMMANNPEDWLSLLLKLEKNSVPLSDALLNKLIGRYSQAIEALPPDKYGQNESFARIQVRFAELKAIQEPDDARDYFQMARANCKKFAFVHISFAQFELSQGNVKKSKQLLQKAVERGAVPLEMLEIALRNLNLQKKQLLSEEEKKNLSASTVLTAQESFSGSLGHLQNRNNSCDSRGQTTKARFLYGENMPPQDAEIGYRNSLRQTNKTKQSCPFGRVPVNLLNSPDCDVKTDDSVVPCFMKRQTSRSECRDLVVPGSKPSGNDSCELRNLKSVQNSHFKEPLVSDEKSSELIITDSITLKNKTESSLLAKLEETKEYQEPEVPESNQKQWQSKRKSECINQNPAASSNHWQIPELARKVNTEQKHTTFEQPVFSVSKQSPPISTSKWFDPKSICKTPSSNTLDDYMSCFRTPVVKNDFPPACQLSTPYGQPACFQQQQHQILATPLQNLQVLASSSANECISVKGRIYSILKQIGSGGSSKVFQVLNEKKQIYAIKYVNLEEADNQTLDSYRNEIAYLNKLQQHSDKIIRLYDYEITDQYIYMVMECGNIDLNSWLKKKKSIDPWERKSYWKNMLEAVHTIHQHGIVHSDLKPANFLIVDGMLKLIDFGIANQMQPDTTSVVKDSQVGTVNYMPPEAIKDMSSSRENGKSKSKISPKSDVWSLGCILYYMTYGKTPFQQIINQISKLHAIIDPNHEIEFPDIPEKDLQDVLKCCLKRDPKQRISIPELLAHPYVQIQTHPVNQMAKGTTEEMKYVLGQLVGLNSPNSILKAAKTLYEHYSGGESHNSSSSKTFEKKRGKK
Compound,IC50 [1],IC50 (human kinase Mps-1; 2 mM ATP),IC50 (human kinase Mps-1; [5]),Rat liver microsomes; Fmax [%] [2],Human liver microsomes; Fmax [%] [3],Dog liver microsomes; Fmax [%] [4]
"C[C@@H](C(=O)Nc1ccc(-c2ccc3nc(Nc4ccc(C(N)=O)cc4OCC(F)(F)F)nn3c2)cc1)c1ccc(F)cc1 [Example01.06, 4-{[6-(4-{[(2R)-2-(4-fluorophenyl)propanoyl]amino}phenyl)[1,2,4]triazolo-[1,5-a]pyridin-2-yl]amino}-3-(2,2,2-trifluoroethoxyl)benzamide]",< 100 nM,1.5 nM,< 1 nM,94%,>95%,81%
"COc1cc(S(C)(=O)=O)ccc1Nc1nc2ccc(-c3ccc(NC(=O)[C@H](N)c4ccc(F)cc4)cc3)cn2n1 [Example01.11, (2R)-2-amino-2-(4-fluorophenyl)-N-[4-(2-{[2-methoxy-4-(methylsulfonyl)-phenyl]amino}[1,2,4]triazolo[1,5-a]pyridin-6-yl)phenyl]ethanamide]",< 600 nM,9 nM,< 1 nM,92%,76%,75%
"COc1cc(C(=O)NCC(F)(F)F)ccc1Nc1nc2ccc(-c3ccc(NC(=O)[C@H](C)c4ccc(F)cc4)cc3)cn2n1 [Example 01.04, 4-{[6-(4-{[(2R)-2-(4-fluorophenyl)propanoyl]amino}phenyl)[1,2,4]-triazolo[1,5-a]pyridin-2-yl]amino}-3-methoxy-N-(2,2,2-trifluoro-ethyl)benzamide]",< 400 nM,2 nM,< 1 nM,87%,>95%,94%
